Literature values in paper PMC8352932, “Targeted activity of the small molecule kinase inhibitor Pz-1 towards RET and TRK kinases” (Scientific Reports, 2021).
Where “and” joins values, the source holds several entries; their conditions need not be identical. Equal entries are not always repeated.

Key:
Conditions in all cases: read-out: cell proliferation IC50
[1] = test system: TEL-TRKA Ba/F3 cells
[2] = test system: KIF5B-RET Ba/F3 cells
[3] = test system: MPRIP-TRKA Ba/F3 cells; set-up: method as in PMID 24162815

SMILES | IC50 [2] | further results
CN1CCN(c2ccc(C(=O)Nc3n[nH]c4ccc(Cc5cc(F)cc(F)c5)cc34)c(NC3CCOCC3)c2)CC1 [entrectinib] |  | IC50 [1]: 2.8 nM
CO[C@]1(C(=O)N[C@@H](C)c2ccc(-n3cc(F)cn3)nc2)CC[C@H](c2nc(C)cc(Nc3cc(C)[nH]n3)n2)CC1 [pralsetinib] | 9.7 nM and 16.5 nM | 
COc1cc2nccc(Oc3ccc(NC(=O)C4(C(=O)Nc5ccc(F)cc5)CC4)cc3)c2cc1OC [cabozantinib] | 341 nM | 
O=C(Nc1cnn2ccc(N3CCC[C@@H]3c3cc(F)ccc3F)nc12)N1CC[C@H](O)C1 [larotrectinib] |  | IC50 [3]: 8 nM
COc1ccc(CN2C3CC2CN(c2ccc(-c4cc(OCC(C)(C)O)cn5ncc(C#N)c45)cn2)C3)cn1 [selpercatinib] | 8 nM | 
